Tests used:
[1] = tested on: HIV-1 RT-associated RNase H activity, V108A RT; experiment: RNase H activity assay, V108A RT; format: biochemical, HIV-1 group M subtype B; conditions: V108A RT
Procedure: HIV RT-associated RNase H activity was measured as described in 100 μL reaction volume containing 50 mM Tris-HCl buffer pH 7.8, 6 mM MgCl2, 1 mM dithiothreitol (DTT), 80 mM KCl, 0.25 μM hybrid RNA/DNA 5'-GAUCUGAGCCUGGGAGCU-Fluorescin-3' (HPLC, dry, QC: Mass Check) (available from Metabion) 5'-Dabcyl-AGCTCCCAGGCTCAGATC-3'(HPLC, dry, QC: Mass Check), increasing concentrations of inhibitors, whose dilution were made in water, and different amount of enzymes according to a linear range of dose-response curve: 20 ng of WT RT; 60 ng K103N RT; 37.5 ng V106A RT; 75 ng V108A RT; 5 ng Y181C RT; 50 ng Y188A RT; 30 ng Y188L RT; 100 ng E224A RT; 37.5 ng P225A RT; 20 ng P226A RT; 18 ng F227A RT; 30 ng L228A RT; 30 ng W229A RT; 10 ng M230A RT; 30 ng G231A RT; 62.5 ng N474A RT; 1 μg Y501A RT; 100 ng A502F RT; 37.5 ng A508V RT; 38 ng HIV-1 group O RT. The reaction mixture was incubated for 1 h at 37°C, stopped by addition of EDTA and products were measured with a multilabel counter plate reader Victor 3 (Perkin Elmer model 1420–051) equipped with filters for 490/528 nm (excitation/emission wavelength)

HIV-2 RT = tested on: HIV-2 RT; design: method as in PMID 15741178; conditions: HIV-2 RT versus HIV-1 RT; cited from earlier work
[2] = target: T1, HIV-1 RT-associated RDDP activity, A502F RT (Human immunodeficiency virus type 1 group M subtype B, UniProt P04585, A1089F); experiment: biochemical; design: species or system HIV-1 group M subtype B
T1 construct: The 1:1 ration between the p66/p51 subunits was also verified; made in house; host or cells: E. coli M15

[3] = target: T2, HIV-1 RT-associated RDDP activity, K103N RT (Human immunodeficiency virus type 1 group M subtype B, UniProt P04585, K690N); experiment: RDDP activity assay, K103N RT; format: biochemical, HIV-1 group M subtype B
T2 construct: The 1:1 ration between the p66/p51 subunits was also verified; made in house; host or cells: E. coli M15

[4] = target: T3, HIV-1 RT-associated RDDP activity, N474A RT (Human immunodeficiency virus type 1 group M subtype B, UniProt P04585, N1061A); experiment: biochemical; design: species or system HIV-1 group M subtype B
T3 construct: The 1:1 ration between the p66/p51 subunits was also verified; made in house; host or cells: E. coli M15

[5] = target: T4, HIV-1 RT-associated RDDP activity, P225A RT (Human immunodeficiency virus type 1 group M subtype B, UniProt P04585, P812A); experiment: biochemical; design: species or system HIV-1 group M subtype B
T4 construct: The 1:1 ration between the p66/p51 subunits was also verified; made in house; host or cells: E. coli M15

[6] = target: T5, HIV-1 RT-associated RDDP activity, A508V RT (Human immunodeficiency virus type 1 group M subtype B, UniProt P04585, A1095V); experiment: biochemical; design: species or system HIV-1 group M subtype B
T5 construct: The 1:1 ration between the p66/p51 subunits was also verified; made in house; host or cells: E. coli M15

[7] = target: T6, HIV-1 RT-associated RDDP activity, V108A RT (Human immunodeficiency virus type 1 group M subtype B, UniProt P04585, V695A); experiment: biochemical; design: species or system HIV-1 group M subtype B
T6 construct: The 1:1 ration between the p66/p51 subunits was also verified; made in house; host or cells: E. coli M15

[8] = target: T7, HIV-1 RT-associated RDDP activity, W229A RT (Human immunodeficiency virus type 1 group M subtype B, UniProt P04585, W816A); experiment: biochemical; design: species or system HIV-1 group M subtype B
T7 construct: The 1:1 ration between the p66/p51 subunits was also verified; made in house; host or cells: E. coli M15

[9] = target: T8, HIV-1 RT RNA-dependent DNA polymerase activity (Human immunodeficiency virus type 1 group M subtype B, UniProt P04585); experiment: Yonetani-Theorell analysis of RMNC6 and EFV on RDDP function; format: biochemical
T8 construct: The 1:1 ration between the p66/p51 subunits was also verified; made in house; host or cells: E. coli M15
Procedure: RNA-dependent DNA polymerase (RDDP) activity was measured as described in 25 μL volume containing 60 mM Tris-HCl buffer pH 8.1, 8 mM MgCl2, 60 mM KCl, 13 mM DTT, 2.5 μM poly(A)-oligo(dT), 100 μM dTTP, increasing concentrations of inhibitors, whose dilution were made in water, and different amounts of enzymes according to a linear range of dose-response curve: 6 ng wt RT; 30 ng K103N RT; 12 ng V106ART; 19 ng V108A RT; 1.51.5 ng Y181C RT; 45 ng Y188A RT; 15 ng Y188L RT; 30 ng E224A RT; 15 ng P225A RT; 18 ng P226A RT; 23 ng F227A RT; 15 ng L228A RT; 30 ng W229A RT; 30 ng M230A RT; 15 ng G231A RT; 15 ng N474A RT; 15 ng Y501A RT; 15 ng A502F RT; 19 ng A508V RT; 38 ng HIV-1 group O RT. After enzyme addition, the reaction mixture was incubated for 30 min at 37°C and the stopped by addition of EDTA. Reaction products were detected by picogreen addition and measured with a multilabel counter plate reader Victor 3 (Perkin Elmer model 1420–051) equipped with filters for 502/523 nm (excitation/emission wavelength). The Yonetani-Theorell analysis was performed as described previously.

[10] = tested on: HIV-1 RT-associated RDDP activity, Y188A RT; experiment: biochemical; design: species or system HIV-1 group M subtype B; conditions: Y188A RT
[11] = target: T9, HIV-1 RT-associated RDDP activity, Y188A RT (Human immunodeficiency virus type 1 group M subtype B, UniProt P04585, Y775A); experiment: biochemical; design: species or system HIV-1 group M subtype B
T9 construct: The 1:1 ration between the p66/p51 subunits was also verified; made in house; host or cells: E. coli M15

Structure (SMILES) | Fold of increase of RNase H IC50 with respect to wt RT [1] | Times less susceptible than the HIV-1 enzyme (HIV-2 RT) | IC50 [2] | Fold of increase of RDDP IC50 with respect to wt RT ([2]; A502F RT) | IC50 [3] | IC50 [4] | Fold of increase of RDDP IC50 with respect to wt RT ([4]; N474A RT) | IC50 [5] | Fold of increase of RDDP IC50 with respect to wt RT ([5]; P225A RT) | IC50 [6] | Fold of increase of RDDP IC50 with respect to wt RT ([6]; A508V RT) | IC50 [7] | Fold of increase of RDDP IC50 with respect to wt RT ([7]; V108A RT) | IC50 [8] | Fold of increase of RDDP IC50 with respect to wt RT ([8]; W229A RT) | Mutual exclusivity of inhibition (Yonetani-Theorell, words) ([9]; RMNC6 combined with EFV (4, 8, 16 nM) on RDDP function) | Interaction constant α (Yonetani-Theorell) ([9]; combined effects of RMNC6 and EFV on RDDP function) | Fold of increase of RDDP IC50 with respect to wt RT [10] | IC50 [11]
CC(C)c1ccc(O)c(=O)c(O)c1 [BTP, β-thujaplicinol, reference compound] | 0.9 | about 3.7 |  |  |  |  |  |  |  |  |  |  |  |  |  |  |  |  | 
N#Cc1ccc(-c2csc(NN=C3C(=O)Nc4ccccc43)n2)cc1 [RMNC6, (Z)-4-(2-(2-(2-oxoindolin-3-ylidene)hydrazinyl)thiazol-4-yl)benzonitrile] |  |  | 17.1 ± 2.1 µM | 1.8 | 13.6 ± 1 µM | 12.7 ± 1.7 µM | 1.3 | 3.1 ± 0.3 µM | 0.3 | 19.3 ± 2.8 µM | 2.0 | 33 ± 5.2 µM | 3.4 | 15.4 ± 2.8 µM | 1.6 | not mutually exclusive | 1.2 | 2.1 | 20.9 ± 4 µM
